Square brackets hold non-standard residues; d marks the D form. Peptide text beside a SMILES is read from it. * marks the point of attachment. X1 = NC(=O)CC[C@@H]1NC(=O)CCC=CCN(CCC(=O)*)C(=O)[C@H](CCC(=O)O)NC1=O; β3hL = CC(C)C[C@H](N)CC(=O)O; β3hA = C[C@H](N)CC(=O)O
How the values were obtained:
[1] = target: T1, His6-tagged Mdm2 (25-117) (Homo sapiens, UniProt Q00987); test: Fluorescence polarization-based competitive binding assay with Flu-p53; conditions: for Kd: read-out: KD (binding constant for His6-Mdm2); for Binding to Mdm2, result in words: negative control peptides
T1 construct: made in house; host or cells: E. coli BL21 DE3 pLySS, pET-14B vector

[2] = tested on: trypsin; test: Trypsin digestion assay; assay type: in vitro ADME; conditions: 1 ng/μL trypsin, 4° C.
Description: A solution containing 500 μM of tryptophan, 1 ng/μL of trypsin, and 500 μM of peptide in PBS was incubated at 4° C. At the indicated time intervals, 100 μL of this solution was quenched with 100 μL of 2% aqueous TFA, and then injected into reversed-phase HPLC to analyze the change in the area of the peptide peak compared to the area of an internal control (tryptophan).
Trypsin was chosen as the model proteolytic enzyme because the p53 activation domain contains a lysine group near the C-terminus, providing a cleavage site for this enzyme. […] The rate of peptide digestion was measured using an LCMS assay with tryptophan as an internal control.

[3] = tested on: serum proteases; test: Serum stability assay; assay type: in vitro ADME; conditions: 25% human serum in RPMI, 37° C., after 24 hours, LCMS
Description: Peptides and 50% human serum (Sigma, St Louis, Mo., USA; product number S7023) in RPMI were temperature-equilibrated to 37° C. for 15 minutes prior to the experiments. […] After 0, 2, 5, 10, and 24 hours, three samples of each peptide (50 μl) were taken, and were precipitated by the addition of 100 μl of 6% aqueous trichloroacetic acid. The samples were cooled to 4° C. for 20 minutes and centrifuged (14000 rpm for 5 minutes). The supernatants were immediately frozen on dry ice and 100 μl of each were analyzed on an Agilent LCMS using 0.1% formic acid in water (eluent A) and 0.1% formic acid in acetonitrile (eluent B). The level of intact peptide was determined by comparing the LC % area of the peptide peak at different time points to the % area of the O-hour peak.
Human serum contains a myriad of proteases and provides a gauge for the stability of compounds under physiological conditions.

[4] = tested on: HeLa cells; test: Cellular uptake assay, confocal microscopy of live cells; assay type: cell-based; conditions: 15 μM fluorescein-tagged peptide, 2 hours, 37° C.
Description: HeLa cells were cultured to sub-confluence in DMEM (Invitrogen) supplemented with 10% (v/v) fetal bovine serum (FBS) at 37° C. in a humidified incubator containing 5% CO2. Cells (˜1×10^4 cells/ml) in DMEM supplemented with 10% FBS were plated onto a 24-well culture plate containing microscope cover slides. After overnight incubation, cells were washed three times with 1 ml HBSS (Invitrogen) and supplemented with 15 μM fluorescein-tagged peptides in 1 mM PBS (pH 7.4) to a total volume of 500 μl. Peptide treated cells were incubated for another 2 hours at 37° C., washed five times with 500 μl HBSS, and imaged directly on a Leica TSC SP 2 laser scanning confocal microscope. Twenty serial 1 μm Z-section images through the middle of the cells were collected and analyzed.
It is likely that cellular uptake of HBS helices will have sequence dependence; however, it is noteworthy that peptides with an overall negative charge are internalized (Patgiri et al., Nat. Chem. Biol. 7:585 (2011), which is hereby incorporated by reference in its entirety), as positive charge is often associated with enhanced cellular uptake of peptides (Henchey et al., J. Am. Chem. Soc'y 132:941 (2010); Bernal et al., J. Am. Chem. Soc'y 129:2456 (2007); Wender et al., Proc. Nat'l Acad. Sci. USA 97:13003 (2000), each of which is hereby incorporated by reference in its entirety).

Row | Compound | Kd [1] [µM] | Binding to Mdm2, result in words [1] | other results
1 | CC(=O)N[C@@H](CCC(N)=O)C(=O)N[C@H]1CCC[C@@H]1C(=O)NCC(=O)N[C@@H](Cc1ccccc1)C(=O)N[C@@H](CO)C(=O)N[C@H]1CCC[C@@H]1C(=O)N[C@@H](CC(C)C)C(=O)N[C@@H](Cc1c[nH]c2ccccc12)C(=O)N[C@@H](CCCCN)C(=O)N[C@H]1CCC[C@@H]1C(=O)N[C@@H](CC(C)C)C(=O)N[C@@H](CO)C(N)=O [Peptide 4, Ac-Q(ACPC)GFS(ACPC)LWK(ACPC)LS-NH2 (SEQ ID NO: 8)] | 0.43 ± 0.086 | – | Affinity for Mdm2 as compared to peptide 1 ([1]; relative to peptide 1): roughly five-fold lower affinity
2 | CC(=O)N[C@@H](CCC(N)=O)C(=O)N[C@@H](CCC(=O)O)CC(=O)NCC(=O)N[C@@H](Cc1ccccc1)C(=O)N[C@@H](CO)C(=O)N[C@@H](CC(=O)O)CC(=O)N[C@@H](CC(C)C)C(=O)N[C@@H](Cc1c[nH]c2ccccc12)C(=O)N[C@@H](CCCCN)C(=O)N[C@H](CC(=O)N[C@@H](CC(C)C)C(=O)N[C@@H](CO)C(N)=O)CC(C)C [Peptide 3, Ac-QeGFSdLWKILS-NH2 (SEQ ID NO: 7)] | – | – | Stability toward trypsin degradation, in words ([2]; PBS): stable toward degradation
3 | CC(C)C[C@@H](CC(=O)N[C@@H](CC(C)C)C(=O)N[C@@H](CO)C(N)=O)NC(=O)[C@H](CCCCN)NC(=O)[C@H](Cc1c[nH]c2ccccc12)NC(=O)[C@H](CC(C)C)NC(=O)C[C@H](CC(=O)O)NC(=O)[C@H](CO)NC(=O)[C@H](Cc1ccccc1)NC(=O)CN1CC=CCCC(=O)N[C@@H](CCC(N)=O)C(=O)N[C@@H](CCC(=O)O)CC1=O [Peptide 1, XQeG*FSdLWKILS-NH2 (SEQ ID NO: 5)] | – | – | Stability in human serum, in words [3]: remained unperturbed; metabolised at 24 h, 500 μM ([2]; trypsin (isolated protease) in PBS, after 24 hours, 500 μM peptide, read-out: Peptide cleaved by trypsin): ~20%
4 | CC(C)C[C@@H](CC(=O)N[C@@H](C)C(=O)N[C@@H](CO)C(N)=O)NC(=O)[C@H](CCCCN)NC(=O)[C@H](Cc1c[nH]c2ccccc12)NC(=O)[C@H](CC(C)C)NC(=O)C[C@H](CC(=O)O)NC(=O)[C@H](CO)NC(=O)[C@H](C)NC(=O)CN1CC=CCCC(=O)N[C@@H](CCC(N)=O)C(=O)N[C@@H](CCC(=O)O)CC1=O [Peptide 5, XQeG*ASdLWKIAS-NH2 (SEQ ID NO: 9)] | > 1000 | does not bind to Mdm2 with measurable affinity | –
5 | CC(C)C[C@@H](CC(=O)N[C@@H](Cc1c[nH]c2ccccc12)C(=O)N[C@@H](CCCCN)C(=O)N[C@@H](CC(C)C)C(=O)N[C@@H](C)CC(=O)N[C@@H](CO)C(N)=O)NC(=O)[C@H](CC(=O)O)NC(=O)[C@H](CO)NC(=O)[C@H](C)NC(=O)CCN1CC=CCCC(=O)N[C@@H](CCC(N)=O)C(=O)N[C@@H](CCC(=O)O)C1=O [Peptide 4-9, XQEg*ASDIWKLaS-NH2 (SEQ ID NO: 16)] (X1-ASD[β3hL]WKL[β3hA]S-NH2) | > 1000 | does not bind with any appreciable binding affinity | –
6 | XQeG*FSdLWKILSC^Flu-NH2 (SEQ ID NO: 11) [Flu-1] | – | – | Cellular uptake (intracellular fluorescence) [4]: intense intracellular fluorescence
